PubChem BioAssay AID256 (DTP/NCI, 2004)
Values joined by “and” are separate entries in the source; they are usually repeats but may differ in a detail not shown here. Equal entries are not always repeated. Inconclusive results and toxic doses are left out.

Test system: CD2F1 mice, L1210 leukemia ip, survival T/C
Assay: NCI In Vivo Anticancer Drug Screen. Data for tumor model L1210 Leukemia (intraperitoneal) in CD2F1 (CDF1) mice
Conditions: higher = longer survival
Method in brief: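 Implant tumor; dose compound or vehicle; measure endpoint in both groups; report treated divided by control.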

[1] = endpoint: mean survival time, dose: 25.0 mg/kg/injection, schedule: Q01DX009 (ip), vehicle: saline with Tween-80
[2] = endpoint: mean survival time, dose: 50.0 mg/kg/injection, schedule: Q01DX009 (ip), vehicle: saline with Tween-80
[3] = endpoint: mean survival time, dose: 100.0 mg/kg/injection, schedule: Q01DX009 (ip), vehicle: saline with Tween-80
[4] = endpoint: mean survival time, dose: 100.0 mg/kg/injection, schedule: Q04DX003 (ip), vehicle: saline with Tween-80
[5] = endpoint: mean survival time, dose: 200.0 mg/kg/injection, schedule: Q01DX009 (ip), vehicle: saline with Tween-80
[6] = endpoint: mean survival time, dose: 200.0 mg/kg/injection, schedule: Q04DX003 (ip), vehicle: saline with Tween-80
[7] = endpoint: mean survival time, dose: 400.0 mg/kg/injection, schedule: Q04DX003 (ip), vehicle: saline with Tween-80
[8] = endpoint: mean survival time, dose: 12.5 mg/kg/injection, schedule: Q01DX005 (ip), vehicle: distilled water + Tween-80
[9] = endpoint: mean survival time, dose: 25.0 mg/kg/injection, schedule: Q01DX005 (ip), vehicle: distilled water + Tween-80
[10] = endpoint: mean survival time, dose: 50.0 mg/kg/injection, schedule: Q01DX005 (ip), vehicle: distilled water + Tween-80
[11] = endpoint: mean survival time, dose: 100.0 mg/kg/injection, schedule: Q01DX005 (ip), vehicle: distilled water + Tween-80
[12] = endpoint: mean survival time, dose: 200.0 mg/kg/injection, schedule: Q01DX005 (ip), vehicle: distilled water + Tween-80
[13] = endpoint: mean survival time, dose: 400.0 mg/kg/injection, schedule: Q01DX009 (ip), vehicle: saline with Tween-80

With `COc1ccc(/C=N/N=C/c2ccc(OC)cc2)cc1` the T/C (endpoint: mean survival time, dose: 100.0 mg/kg/injection, schedule: Q04DX003 (ip), vehicle: Klucel (hydroxypropylcellulose) (HPC)) was 104 % of control, the T/C (endpoint: mean survival time, dose: 200.0 mg/kg/injection, schedule: Q04DX003 (ip), vehicle: Klucel (hydroxypropylcellulose) (HPC)) was 100 % of control and the T/C (endpoint: mean survival time, dose: 400.0 mg/kg/injection, schedule: Q04DX003 (ip), vehicle: Klucel (hydroxypropylcellulose) (HPC)) was 114 % of control.

`CSC/C(=N\Nc1ccc([N+](=O)[O-])cc1[N+](=O)[O-])c1ccccc1` was tested, and the T/C (endpoint: mean survival time, dose: 50.0 mg/kg/injection, schedule: Q01DX001 (ip), vehicle: saline with Tween-80) was 98 % of control, the T/C (endpoint: mean survival time, dose: 100.0 mg/kg/injection, schedule: Q01DX001 (ip), vehicle: saline with Tween-80) was 93 % of control and the T/C (endpoint: mean survival time, dose: 200.0 mg/kg/injection, schedule: Q01DX001 (ip), vehicle: saline with Tween-80) was 90 % of control.

With `C=CCCC(=O)CCCC(=O)O[C@@H]1[C@@H]2[C@H](CC1(C)C)[C@H](O)[C@@]13O[C@@H]1[C@H](O)[C@@]1(CO1)[C@@]23C` the T/C (endpoint: mean survival time, dose: 6.2 micrograms/kg/injection, schedule: Q01DX009 (ip), vehicle: saline) was 95 % of control, the T/C (endpoint: mean survival time, dose: 12.5 micrograms/kg/injection, schedule: Q01DX009 (ip), vehicle: saline) was 89 % of control and the T/C (endpoint: mean survival time, dose: 25.0 micrograms/kg/injection, schedule: Q01DX009 (ip), vehicle: saline) was 95 % of control. The T/C (endpoint: mean survival time, dose: 50.0 micrograms/kg/injection, schedule: Q01DX009 (ip), vehicle: saline) was 97 % of control, the T/C (endpoint: median survival time, dose: 25.0 micrograms/kg/injection, schedule: Q01DX009 (ip), vehicle: Klucel (hydroxypropylcellulose) (HPC)) was 101 % of control and the T/C (endpoint: median survival time, dose: 50.0 micrograms/kg/injection, schedule: Q01DX009 (ip), vehicle: Klucel (hydroxypropylcellulose) (HPC)) was 101 % of control. For the same compound, the T/C (endpoint: median survival time, dose: 100.0 micrograms/kg/injection, schedule: Q01DX009 (ip), vehicle: Klucel (hydroxypropylcellulose) (HPC)) was 100 % of control, the T/C (endpoint: median survival time, dose: 200.0 micrograms/kg/injection, schedule: Q01DX009 (ip), vehicle: Klucel (hydroxypropylcellulose) (HPC)) was 94 % of control and the T/C (endpoint: median survival time, dose: 400.0 micrograms/kg/injection, schedule: Q01DX009 (ip), vehicle: Klucel (hydroxypropylcellulose) (HPC)) was 97 % of control.

With `CCC(CO)(CO)[N+](=O)[O-]` the T/C (endpoint: mean survival time, dose: 100.0 mg/kg/injection, schedule: Q01DX009 (ip), vehicle: saline) was 100 % of control, the T/C (endpoint: mean survival time, dose: 200.0 mg/kg/injection, schedule: Q01DX009 (ip), vehicle: saline) was 100 % of control and the T/C (endpoint: mean survival time, dose: 400.0 mg/kg/injection, schedule: Q01DX009 (ip), vehicle: saline) was 94 % of control.

With `Clc1ccc2nnnn2n1` the T/C (endpoint: mean survival time, dose: 12.5 mg/kg/injection, schedule: Q01DX009 (ip), vehicle: saline with Tween-80) was 105 % of control, the T/C [1] was 113 % of control and 114 % of control and the T/C (endpoint: mean survival time, dose: 25.0 mg/kg/injection, schedule: Q04DX003 (ip), vehicle: saline with Tween-80) was 96 % of control. The T/C (endpoint: mean survival time, dose: 31.75 mg/kg/injection, schedule: Q04DX003 (ip), vehicle: saline with Tween-80) was 106 % of control, the T/C [2] was 100 % of control and 110 % of control and the T/C (endpoint: mean survival time, dose: 50.0 mg/kg/injection, schedule: Q04DX003 (ip), vehicle: saline with Tween-80) was 100 % of control. The T/C (endpoint: mean survival time, dose: 62.5 mg/kg/injection, schedule: Q04DX003 (ip), vehicle: saline with Tween-80) was 103 % of control, the T/C [3] was 114 % of control and 122 % of control and the T/C [4] was 107 % of control. The T/C (endpoint: mean survival time, dose: 125.0 mg/kg/injection, schedule: Q04DX003 (ip), vehicle: saline with Tween-80) was 103 % of control, the T/C [5] was 100 % of control and the T/C [6] was 105 % of control. For the same compound, the T/C (endpoint: mean survival time, dose: 250.0 mg/kg/injection, schedule: Q04DX003 (ip), vehicle: saline with Tween-80) was 105 % of control, the T/C [7] was 108 % of control and the T/C (endpoint: median survival time, dose: 25.0 mg/kg/injection, schedule: Q01DX009 (ip), vehicle: saline with Tween-80) was 102 % of control and 103 % of control. For the same compound, the T/C (endpoint: median survival time, dose: 25.0 mg/kg/injection, schedule: Q04DX003 (ip), vehicle: saline with Tween-80) was 114 % of control, the T/C (endpoint: median survival time, dose: 50.0 mg/kg/injection, schedule: Q01DX009 (ip), vehicle: saline with Tween-80) was 113 % of control and 108 % of control and the T/C (endpoint: median survival time, dose: 50.0 mg/kg/injection, schedule: Q04DX003 (ip), vehicle: saline with Tween-80) was 112 % of control. For the same compound, the T/C (endpoint: median survival time, dose: 100.0 mg/kg/injection, schedule: Q01DX009 (ip), vehicle: saline with Tween-80) was 118 % of control, the T/C (endpoint: median survival time, dose: 100.0 mg/kg/injection, schedule: Q04DX003 (ip), vehicle: saline with Tween-80) was 113 % of control and the T/C (endpoint: median survival time, dose: 200.0 mg/kg/injection, schedule: Q01DX009 (ip), vehicle: saline with Tween-80) was 117 % of control and 108 % of control. For the same compound, the T/C (endpoint: median survival time, dose: 200.0 mg/kg/injection, schedule: Q04DX003 (ip), vehicle: saline with Tween-80) was 110 % of control and the T/C (endpoint: median survival time, dose: 400.0 mg/kg/injection, schedule: Q04DX003 (ip), vehicle: saline with Tween-80) was 118 % of control.

With `C1CCC2C3CCC(O3)C2C1` (centres undefined) the T/C (endpoint: mean survival time, dose: 100.0 mg/kg/injection, schedule: Q04DX003 (ip), vehicle: saline sonified) was 96 % of control, the T/C (endpoint: mean survival time, dose: 200.0 mg/kg/injection, schedule: Q04DX003 (ip), vehicle: saline sonified) was 96 % of control and the T/C (endpoint: mean survival time, dose: 400.0 mg/kg/injection, schedule: Q04DX003 (ip), vehicle: saline sonified) was 92 % of control.

With `CC1(C)OCC(C2OC(On3nnc4ccc(Cl)cc43)C3OC(C)(C)OC23)O1` (centres undefined) the T/C [8] was 98 % of control, the T/C [9] was 96 % of control and the T/C [10] was 105 % of control. The T/C [11] was 96 % of control and the T/C [12] was 105 % of control.

In the case of `CC1(C)CC(Cl)(C(O)c2ccc([N+](=O)[O-])cc2)C(=O)c2ccccc21` (centres undefined), the T/C (endpoint: mean survival time, dose: 100.0 mg/kg/injection, schedule: Q04DX003 (ip), vehicle: acetone) is reported as 95 % of control, the T/C (endpoint: mean survival time, dose: 200.0 mg/kg/injection, schedule: Q04DX003 (ip), vehicle: acetone) is reported as 98 % of control and the T/C (endpoint: mean survival time, dose: 400.0 mg/kg/injection, schedule: Q04DX003 (ip), vehicle: acetone) is reported as 88 % of control.

`O=C(COc1ccc(Cl)c(Cl)c1)NCc1ccc(Cl)cc1` was tested, and the T/C [4] was 97 % of control, the T/C [6] was 95 % of control and the T/C [7] was 93 % of control.

With `CC[C@](C)(O)C(=O)O[C@H]1C(=O)O[C@@H]2C[C@H]3C(C)=CC(=O)[C@@H](O)[C@]3(C)[C@H]3[C@@]4(O)OC[C@]32[C@@H]1[C@@H](C)[C@H]4O` the T/C (endpoint: mean survival time, dose: 12.5 micrograms/kg/injection, schedule: Q01DX009 (ip), vehicle: saline with Tween-80) was 101 % of control, the T/C (endpoint: mean survival time, dose: 25.0 micrograms/kg/injection, schedule: Q01DX009 (ip), vehicle: saline with Tween-80) was 100 % of control and the T/C (endpoint: mean survival time, dose: 50.0 micrograms/kg/injection, schedule: Q01DX009 (ip), vehicle: saline with Tween-80) was 105 % of control. For the same compound, the T/C (endpoint: mean survival time, dose: 100.0 micrograms/kg/injection, schedule: Q01DX009 (ip), vehicle: saline with Tween-80) was 112 % of control.

For `CNC(=O)c1ccccc1C(c1ccccc1)C1(O)CCCCC1` (centres undefined), the T/C [4] was 101 % of control, the T/C [6] was 88 % of control and the T/C [7] was 93 % of control.

In the case of `O=P(Nc1ccccc1)(OCc1ccccc1)N(CCCl)CCCl` (centres undefined), the T/C (endpoint: mean survival time, dose: 62.5 mg/kg/injection, schedule: Q01DX010 (ip), vehicle: saline) is reported as 104 % of control, the T/C (endpoint: mean survival time, dose: 125.0 mg/kg/injection, schedule: Q01DX010 (ip), vehicle: saline) is reported as 103 % of control and the T/C (endpoint: mean survival time, dose: 250.0 mg/kg/injection, schedule: Q01DX010 (ip), vehicle: saline) is reported as 101 % of control.

With `Cn1c(=O)c2c(n(C)c1=O)n1cnnc1n2C` the T/C [8] was 95 % of control, the T/C [9] was 100 % of control and the T/C [10] was 100 % of control. The T/C [11] was 100 % of control and the T/C [12] was 89 % of control.

With `S=C(S)NCCc1ccccn1` the T/C [3] was 102 % of control, the T/C [5] was 94 % of control and the T/C [13] was 103 % of control.

`CCN(CC)CCN1CC2C3C=CC(C3)C2C1` (centres undefined) was tested, and the T/C [1] was 97 % of control, the T/C [2] was 100 % of control and the T/C [3] was 102 % of control and 104 % of control.

With `Cc1cc(CBr)c(O)c(CBr)c1` the T/C (endpoint: mean survival time, dose: 25.0 mg/kg/injection, schedule: Q01DX009 (ip), vehicle: other) was 101 % of control, the T/C (endpoint: mean survival time, dose: 50.0 mg/kg/injection, schedule: Q01DX009 (ip), vehicle: other) was 93 % of control and the T/C (endpoint: mean survival time, dose: 100.0 mg/kg/injection, schedule: Q01DX009 (ip), vehicle: other) was 104 % of control.

For `Nc1cc(S(=O)(=O)c2ccc(/C=C/c3ccccc3)c(N)c2)ccc1/C=C/c1ccccc1`, the T/C [3] was 93 % of control, the T/C [5] was 94 % of control and 88 % of control and the T/C [13] was 91 % of control.

`CC([NH-])CC(C)[NH-].[Br][Pt+2][Br]` (centres undefined) was tested, and the T/C (endpoint: mean survival time, dose: 3.12 mg/kg/injection, schedule: Q04DX003 (ip), vehicle: saline with Tween-80) was 120 % of control and 124 % of control and the T/C (endpoint: mean survival time, dose: 12.5 mg/kg/injection, schedule: Q04DX003 (ip), vehicle: saline with Tween-80) was 150 % of control.
